{"source": "patent US12697366B2", "about": "“Thermogenic compositions and methods” (Ohio State Innovation Foundation, priority 2016, dated 2026)", "tested_on": "omental iAb preadipocytes", "experiment": "FD-glucose uptake in human omental iAb preadipocytes", "assay_type": "cell-based", "conditions": "for glucose uptake in preadipocytes from lean insulin-sensitive patients: EREG vs insulin; for glucose uptake in preadipocytes from an insulin resistant patient: different doses of EREG, insulin 10 μg/ml", "description": "FIGS. 16A to 16M show EREG improves glucose uptake in ob/ob mice and in mouse and human preadipocytes. FIG. 16A: GTT was performed on fasting Veh (open circles) and EREG-treated (closed circles) ob/ob (N=5/group, Study 4) mice (12 hrs) using a single 25% dextrose injection (0.004 mL/g body weight). Asterisks indicate significant differences between Veh- and EREG-treated groups. FIG. 16B: ITT was performed in the same mice groups. […]: Fluorescently-labelled (FD) glucose uptake was measured in mouse […] preadipocytes. FIG. 16C: Preadipocytes were treated with vehicle, insulin (ins), EREG and forskolin for 30 mins. […] Asterisks represent significant differences compared to vehicle (P<0.05). FIG. 16D: Dose dependent increase in FD-glucose uptake by 3T3-L1 preadipocytes stimulated with different EREG concentrations. Data are shown as a percent of Veh-treated control. FIGS. 16E to 16G: FD-glucose uptake was measured in omental iAb preadipocytes isolated from lean (FIG. 16E) and obese insulin-resistant (FIG. 16F, 16G) patients in the presence of insulin, EREG, and forskolin. […] Omental preadipocytes from obese insulin resistant […] (FIG. 16G) and […] (FIG. 16K) were also stimulated with and without EREG in presence and absence of EGFR and MAPK inhibitors for 30 mins. Data were calculated as a percent to non-stimulated control (Veh, 100%, dash line) and shown as a mean±SD. Asterisks represent significant differences compared to vehicle (P<0.05), Mann-Whitney U test. FIG. 16H: FD-glucose uptake was measured in mouse 3T3-L1 preadipocytes with or without EREG (50 ng/mL) and inhibitors of MAPK and PI3K (MAPK-I, 10 uM, and PI3K-I, 200 nM). Data (mean±SD) are shown as percent to control (Veh 100%). […] P<0.05 indicate significant differences between EREG-treated and PI3K-I/EREG treated groups. Asterisks indicate significant differences between vehicle control and treatments with inhibitors. FIG. 16I: Phosphorylated (p-Akt) and non-phosphorylated (total) Akt protein levels were measured in mouse 3T3-L1 preadipocytes stimulated with or without EREG (50 ng/ml), PI3K-I (200 nM) for 20 mins by western blot and quantified by ImageJ Software. […] Asterisks represent significant differences compared to vehicle (P<0.05). FIG. 16J: Plasma insulin levels in fasting Veh and EREG-treated ob/ob mice measured by ELISA. FIG. 16L: Phosphorylated Akt protein levels were measured by western blot in human preadipocytes from an obese person stimulated with or without EREG (50 ng/ml) and PI3K-I (200 nM) for 20 mins. […] Asterisks represent significant differences compared to vehicle (P<0.05). Mann-Whitney U test. FIG. 16M: Schematic depicting two different pathways involved in EREG-mediated induction of thermogenesis and glucose uptake. EREG acts via MAPK to induce leptin secretion and also stimulates hormone sensitive lipase (HSL). HSL hydrolyzes free fatty acids activating PPARα activation. EGF, EGFR inhibition, or MAPK inhibition streamlines EREG-dependent PI3K/Akt activation that increase glucose uptake.\nHuman stromal vascular fraction (SVF) was isolated from iAb (omental) fat of lean and obese men and women as described before and maintained in preadipocyte culture media (Lonza, Allendale, NJ). Differentiation was carried out for 9-10 days using preadipocyte culture media supplemented with insulin, dexamethasone, IBMX and indomethacin (Lonza, Allendale, NJ).\nGlucose uptake assay was performed using glucose uptake cell-based assay kit (Cayman Chemical, Ann Arbor, MI). 3T3-L1 or human preadipocytes were cultured at a density of 5×10^4 per well into a 96-well plate (n=7) in high glucose media and grown overnight. Old cell culture medium was removed the next day and washed with PBS to remove residual glucose. Supplied 2-deoxy-2-[(7-nitro-2,1,3-benzoxadiazol-4-yl)amino]-D-glucose) (2-NBDG) was diluted to 150 μg/mL in DMEM medium without glucose, phenol red, L-glutamine, sodium pyruvate, and HEPES (Life technologies, Grand Island, New York). […]", "key": {"[1]": {"conditions": "insulin resistant patient, EREG with EGFR inhibitor, 30 mins"}}, "data": [{"substance": "EREG: Epiregulin, member of the epidermal growth factor family; recombinant mouse or human protein", "values": [{"measurement": "glucose uptake in preadipocytes from lean insulin-sensitive patients", "result": "induced similar glucose uptake"}, {"measurement": "glucose uptake in preadipocytes from an insulin resistant patient", "result": "dose-dependent fashion"}, {"measurement": "glucose uptake with inhibition of EGFR, compared to insulin response (100%)", "setting": "[1]", "result": 212, "unit": "%"}, {"measurement": "glucose uptake with inhibition of EGFR, compared to non-treated preadipocytes (100%)", "setting": "[1]", "result": 268, "unit": "%"}]}, {"substance": "insulin: insulin (bovine or human)", "values": [{"measurement": "glucose uptake in preadipocytes from lean insulin-sensitive patients", "result": "induced similar glucose uptake"}, {"measurement": "glucose uptake in preadipocytes from an insulin resistant patient", "result": "not significant"}]}]}
